Assay results: patent US20220409617A1, “Drug Formulations and Methods of Treatment for Metabolic Disorders” (The Regents of the University of California, priority 2019, published 2022)

Legend:
[1] = Voluntary cage running in HFD-fed mice; format: in vivo, mouse
Text: Exercise can mitigate the negative effects of hyper-nutrition. When provided with a running wheel, mice will voluntarily run 2-10 km per night, slowing the body weight and fat gain that normally accompany HFD feeding and improving metabolic status. To benchmark the effects of sphingolipid-like compound 893 against voluntary exercise and to determine whether the beneficial effects of these interventions are additive, 16 male, C57BL/6J mice that had been fed a HFD for 7 weeks were individually housed, provided with running wheels, and randomly assigned to receive vehicle or 120 mg/kg sphingolipid-like compound 893 on the Monday/Wednesday/Friday schedule. Rodent running activity declines under stress, and monitoring the duration and distance of voluntary wheel running also provides a holistic measure of overall mouse health. […] As expected, voluntary exercise led to weight loss in vehicle-treated mice maintained on a HFD that leveled off after the first week of intervention (FIGS. 15, 21, & 22). […] Wheel running reduced fat mass while maintaining lean mass in all groups (FIGS. 15, 22 & 23).
To monitor voluntary exercise, sixteen mice were singly housed in home cages equipped with running wheels; initially n=8. A magnet was affixed to each 240 mm wheel and a bicycle odometer (Sigma BC509, Sigma Sports, Chicago) used to count the number of wheel revolutions and time spent on running on the wheels. Distance run was calculated by the equation (#revolutions×running wheel circumference=distance). The wheels were cleaned and randomly re-assigned weekly to each cage to control for differences in wheel performance. Two animals in the sphingolipid-like compound 893-treated group were euthanized due to gavage errors and were excluded from the analysis resulting in n=6.

[2] = test system: GLUT1; conditions: cited from earlier work
[3] = Home-cage feeding study with suboptimal leptin (leptin sensitization); format: in vivo, mouse
Text: Leptin is secreted by adipocytes in proportion to their triglyceride content, signaling to the CNS when peripheral energy stores are full and food consumption should decrease. In HFD-fed mice, chronic increases in adiposity lead to elevations in circulating leptin with no accompanying decrease in food intake, a state that has been termed leptin-resistant. Reducing leptin levels in the blood restores leptin signaling in the hypothalamus (S. Zhao, et al., 2019, cited supra). Thus, the sphingolipid-like compound 893 should function as a leptin-sensitizing agent. To test this model, 18 week old lean, male C57BL/6J mice were treated intraperitoneally with a suboptimal dose of recombinant leptin at ZT8.5 and food intake and body weight measured over the next 18 h. […] In summary, the reduction in food intake in sphingolipid-like compound 893-treated mice is consistent with the reversal of mitochondrial fragmentation in the hypothalamus and likely due in part to the re-sensitization of anorexigenic POMG neurons to leptin when plasma leptin levels are decreased.
Mice were singly housed and allowed to acclimate for 72 h before food intake was monitored. Food consumption was determined by monitoring the weight of food in the hopper. Initial food and body weight measurements were taken at ZT9 and final measurements were taken 16 h later to capture the active period where most consumption occurred. Home cage feeding studies were performed with C57BL/6J mice maintained on a HFD for 24 weeks (33 weeks of age), or ob/ob mice at 8 weeks of age. Mice received vehicle or 120 mg/kg sphingolipid-like compound 893 by gavage at ZT8.5. For experiments involving leptin, 18 week old, SD fed (16% kcal from fat, 2020×, Envigo) C57BL/6J mice received vehicle or 120 mg/kg sphingolipid-like compound 893 by gavage at ZT8.5. […] One ob/ob mouse died during Echo MRI for unknown reasons after 6 d of treatment with sphingolipid-like compound 893; data from this mouse was analyzed prior to death.

[4] = cited from earlier work
[5] = biological target: ARF6 (Homo sapiens, UniProt P62330); conditions: cited from earlier work
[6] = 120 mg/kg by oral gavage, prior studies

ARF6, sequence (P62330 whole entry, species assumed): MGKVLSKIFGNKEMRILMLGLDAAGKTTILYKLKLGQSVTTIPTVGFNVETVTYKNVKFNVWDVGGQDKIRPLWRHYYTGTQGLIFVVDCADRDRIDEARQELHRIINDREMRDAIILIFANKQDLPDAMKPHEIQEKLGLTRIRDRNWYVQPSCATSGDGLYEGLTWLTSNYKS

CCCCCCCCc1ccc([C@H]2CCN[C@@H]2CO)cc1.Cl [compound 893]
Average time spent on running wheels each day ([1]; HFD-fed mice with running wheels, 120 mg/kg): equivalent in vehicle- and sphingolipid-like compound 893-treated groups
Average daily distance run ([1]; HFD-fed mice with running wheels, 120 mg/kg Mon/Wed/Fri): 2.8±1.2 km
Weight loss, running wheel plus treatment ([1]; HFD-fed mice, running wheel and 120 mg/kg): even greater weight loss than observed with either treatment alone
Effect on GLUT1 [2]: down-regulate GLUT1
Food intake and body weight over 18 h, single agent ([3]; lean chow-fed 18 week old mice, leptin 2 mg/kg i.p. or 893 120 mg/kg by gavage): trend towards reduced food intake and body weight
Food intake and body weight over 18 h, combined with leptin ([3]; lean chow-fed mice, 893 120 mg/kg by gavage plus leptin 2 mg/kg i.p.): statistically significant decrease in food intake and body weight
Amino acid-dependent mTORC1 signaling [4, 6]: reduces amino acid-dependent mTORC1 signaling
Toxicity (blood chemistry, complete blood count, liver and small intestine histology) [4, 6]: without toxicity
Tumor growth [4, 6]: inhibits tumor growth
Hepatotoxicity ([4]; chronic treatment with the high dose, otherwise healthy tumor-bearing mice): not hepatotoxic
Effect on ARF6 [5]: inactivates
